Results published in ChEMBL document CHEMBL3045001, “Synthesis and evaluation of analgesic, anti-inflammatory, and anticancer activities of new pyrazole-3(5)-carboxylic acid derivatives” (Med Chem Res, 2013).

What was measured:
[1] = test system: Mus musculus; assay: Anti-inflammatory activity in carrageenan-induced Mus musculus Swiss albino (mouse) paw edema model assessed as inhibition of paw edema at 100 mg/kg, sc administered 30 min prior to carrageenan injection measured after 360 min; format: functional; settings: route subcutaneous
[2] = test system: Mus musculus; assay: Anti-inflammatory activity in carrageenan-induced Mus musculus Swiss albino (mouse) paw edema model assessed as inhibition of paw edema at 100 mg/kg, sc administered 30 min prior to carrageenan injection measured after 270 min; format: functional; settings: route subcutaneous
[3] = test system: Mus musculus; assay: Anti-inflammatory activity in carrageenan-induced Mus musculus Swiss albino (mouse) paw edema model assessed as paw swelling at 100 mg/kg, sc administered 30 min prior to carrageenan injection measured after 90 min (reference value: 38.0 +/-2.0 x10'-2 mm); format: functional; settings: route subcutaneous
[4] = test system: Mus musculus; assay: Analgesic activity in Mus musculus Swiss albino (mouse) assessed as inhibition of p-benzoquinone-induced abdominal writhing at 100 mg/kg, sc administered 30 min prior to PBQ injection measured after 5 min for 15 min; format: functional, Abdomen; parameters: scale not given: the % may be the effect or the level left; settings: route subcutaneous
[5] = test system: Mus musculus; assay: Anti-inflammatory activity in carrageenan-induced Mus musculus Swiss albino (mouse) paw edema model assessed as paw swelling at 100 mg/kg, sc administered 30 min prior to carrageenan injection measured after 360 min (reference value: 77.0 +/-3.0 x10'-2 mm); format: functional; settings: route subcutaneous
[6] = organism: Mus musculus; assay: Acute toxicity against Mus musculus Swiss albino (mouse) assessed as morbidity after 48 hr; format: organism-based; settings: in vivo
[7] = test system: Mus musculus; assay: Anti-inflammatory activity in carrageenan-induced Mus musculus Swiss albino (mouse) paw edema model assessed as paw swelling at 100 mg/kg, sc administered 30 min prior to carrageenan injection measured after 270 min (rvb = 75.0 +/-3.0 x10'-2 mm); format: functional; settings: route subcutaneous
[8] = organism: Mus musculus; assay: Acute toxicity against Mus musculus Swiss albino (mouse) assessed as mortality after 48 hr; format: organism-based; settings: in vivo
[9] = test system: Mus musculus; assay: Anti-inflammatory activity in carrageenan-induced Mus musculus Swiss albino (mouse) paw edema model assessed as inhibition of paw edema at 100 mg/kg, sc administered 30 min prior to carrageenan injection measured after 90 min; format: functional; settings: route subcutaneous
[10] = test system: Mus musculus; assay: Anti-inflammatory activity in carrageenan-induced Mus musculus Swiss albino (mouse) paw edema model assessed as paw swelling at 100 mg/kg, sc administered 30 min prior to carrageenan injection measured after 180 min (reference value: 51.0 +/-3.0 x10'-2 mm); format: functional; settings: route subcutaneous
[11] = test system: Mus musculus; assay: Anti-inflammatory activity in carrageenan-induced Mus musculus Swiss albino (mouse) paw edema model assessed as inhibition of paw edema at 100 mg/kg, sc administered 30 min prior to carrageenan injection measured after 180 min; format: functional; settings: route subcutaneous
[12] = test system: Raji; assay: Anticancer activity against Homo sapiens (human) Raji cells assessed as cell viability at 50 uM after 48 hr by MTT assay (reference value: 100 +/-4.26%); format: functional; settings: read-out: Activity
[13] = test system: HL-60; assay: Anticancer activity against Homo sapiens (human) HL60 cells assessed as cell viability at 50 uM after 24 hr by MTT assay (reference value: 100 +/-3.55%); format: functional; settings: HL-60, 24 h, read-out: Activity
[14] = test system: MCF7; assay: Anticancer activity against Homo sapiens (human) MCF7 cells assessed as cell viability at 50 uM after 48 hr by MTT assay (100 +/-5.08%); format: functional; settings: MCF7, 48 h, read-out: Activity
[15] = test system: HeLa; assay: Anticancer activity against Homo sapiens (human) HeLa cells assessed as cell viability at 50 uM after 48 hr by MTT assay (reference value: 100 +/-3.8%); format: functional; settings: read-out: Activity
[16] = test system: MDA-MB-231; assay: Anticancer activity against Homo sapiens (human) estrogen-independent MDA-MB-231 cells assessed as cell viability at 50 uM after 48 hr by MTT assay (reference value: 100 +/-3.71%); format: functional; settings: MDA-MB-231, 48 h, read-out: Activity
[17] = test system: HL-60; assay: Anticancer activity against Homo sapiens (human) HL60 cells assessed as cell viability at 50 uM after 48 hr by MTT assay (reference value: 100 +/-8.41%); format: functional; settings: HL-60, 48 h, read-out: Activity
[18] = test system: Raji; assay: Anticancer activity against Homo sapiens (human) Raji cells assessed as cell viability at 50 uM after 24 hr by MTT assay (reference value: 100 +/-5.02%); format: functional; settings: read-out: Activity
[19] = test system: MCF7; assay: Anticancer activity against Homo sapiens (human) MCF7 cells assessed as cell viability at 50 uM after 24 hr by MTT assay (reference value: 100 +/-2.74%); format: functional; settings: MCF7, 24 h, read-out: Activity
[20] = test system: HeLa; assay: Anticancer activity against Homo sapiens (human) HeLa cells assessed as cell viability at 50 uM after 24 hr by MTT assay (reference value: 100 +/-4.13%); format: functional; settings: read-out: Activity
[21] = test system: MDA-MB-231; assay: Anticancer activity against Homo sapiens (human) estrogen-independent MDA-MB-231 cells assessed as cell viability at 50 uM after 24 hr by MTT assay (reference value: 100 +/-7.08%); format: functional; settings: MDA-MB-231, 24 h, read-out: Activity

Row | SMILES | inhibition in vivo at 100 mg/kg [1] | inhibition in vivo at 100 mg/kg [2] | Activity [3] | Activity [4] | Activity [5] | Activity [6] | Activity [7] | Activity [8] | Activity [10] | inhibition in vivo at 100 mg/kg [11] | viability at 50 µM [12] | viability at 50 µM [13] | viability at 50 µM [14] | viability at 50 µM [15] | viability at 50 µM [16] | viability at 50 µM [17] | viability at 50 µM [18] | viability at 50 µM [19] | viability at 50 µM [20] | viability at 50 µM [21] | other results
1 | Cc1ccc(-c2cc(C(=O)NNc3ccc4ccccc4n3)n(Cc3ccccc3)n2)cc1 | 42.8% | 44.4% | 29 ×10⁻² mm | 48.9% | 44 ×10⁻² mm | Non-toxic | 42 ×10⁻² mm | Non-toxic | 39 ×10⁻² mm | 24.1% | – | – | – | – | – | – | – | – | – | – | inhibition in vivo at 100 mg/kg [9]: 23%
2 | Cc1ccc(-c2cc(C(=O)Oc3ccc(C(C)C)cc3)n(Cc3ccccc3)n2)cc1 | 31.5% | 29% | 38.3 ×10⁻² mm | 33% | 53 ×10⁻² mm | Non-toxic | 53 ×10⁻² mm | Non-toxic | 39 ×10⁻² mm | 24% | 94.2% | 115% | 90.5% | 69.7% | 50.2% | 126% | 105% | 80.3% | 87.2% | 71.9% | –
3 | CC(=O)Oc1ccccc1C(=O)O [ASPIRIN] | – | – | – | 68.9% | – | – | – | – | – | – | – | – | – | – | – | – | – | – | – | – | –
4 | CCOC(=O)C1CCN(C(=O)c2cc(-c3ccc(C)cc3)n(Cc3ccccc3)n2)CC1 | 59.8% | 57.8% | 40 ×10⁻² mm | 83.2% | 31 ×10⁻² mm | Non-toxic | 32 ×10⁻² mm | Non-toxic | 44 ×10⁻² mm | 13.9% | 41.6% | 88.2% | 94.5% | 47.1% | 71.8% | 78.8% | 56.5% | 77.8% | 66.4% | 121% | –
5 | Cc1ccc(-c2cc(C(=O)Oc3ccc(C(C)(C)C)cc3)n(Cc3ccccc3)n2)cc1 | 62% | 50% | 40 ×10⁻² mm | 10.9% | 29 ×10⁻² mm | Non-toxic | 38 ×10⁻² mm | Non-toxic | 33 ×10⁻² mm | 35% | 103% | 120% | 94.9% | 81.4% | 62.9% | 112% | 94.9% | 93.2% | 83.2% | 119% | –
6 | Cc1ccc(-c2cc(C(=O)Oc3ccc(C(C)(C)C)cc3)nn2Cc2ccccc2)cc1 | 58.7% | 54% | 28 ×10⁻² mm | 73.4% | 32 ×10⁻² mm | Non-toxic | 34 ×10⁻² mm | Non-toxic | 37 ×10⁻² mm | 28.5% | 95.3% | 134% | 92.4% | 62.1% | 70.5% | 69.7% | 111% | 90.9% | 118% | 93.7% | inhibition in vivo at 100 mg/kg [9]: 26%
7 | CCCCCCCOc1ccc(OC(=O)c2cc(-c3ccc(C)cc3)nn2Cc2ccccc2)cc1 | – | 10% | 42.5 ×10⁻² mm | – | 80 ×10⁻² mm | Non-toxic | 68 ×10⁻² mm | Non-toxic | 47 ×10⁻² mm | 9% | 84.3% | 118% | 97.6% | 85.3% | 63.2% | 108% | 76.3% | 100% | 109% | 115% | –
8 | Cc1ccc(-c2cc(C(=O)N3CCN(Cc4ccc(C(C)C)cc4)CC3)n(Cc3ccccc3)n2)cc1 | 30.4% | 26.7% | 44.2 ×10⁻² mm | – | 53 ×10⁻² mm | Non-toxic | 55 ×10⁻² mm | Non-toxic | 49 ×10⁻² mm | 4.1% | 109% | 128% | 66.6% | 60.6% | 51% | 104% | 101% | 94.4% | 84.8% | 74% | –
9 | Cc1ccc(-c2cc(C(=O)Oc3ccc(Oc4ccc(C(F)(F)F)cc4)cc3)n(Cc3ccccc3)n2)cc1 | 14.1% | 22.2% | 40 ×10⁻² mm | 56.9% | 66 ×10⁻² mm | Non-toxic | 58 ×10⁻² mm | Non-toxic | 43 ×10⁻² mm | 17% | 121% | 114% | 107% | 77.4% | 50.3% | 86.3% | 111% | 63.6% | 89.1% | 75.5% | –
10 | COc1ccc(CN2CCN(C(=O)c3cc(-c4ccc(C)cc4)nn3Cc3ccccc3)CC2)c(OC)c1OC | 53.3% | 74.4% | 31 ×10⁻² mm | 53% | 36 ×10⁻² mm | Non-toxic | 19 ×10⁻² mm | Non-toxic | 28 ×10⁻² mm | 44.7% | – | – | – | – | – | – | – | – | – | – | inhibition in vivo at 100 mg/kg [9]: 17.8%
11 | Cc1ccc(-c2cc(C(=O)NCc3cccnc3)n(Cc3ccccc3)n2)cc1 | 25.3% | 24.4% | 36 ×10⁻² mm | – | 57 ×10⁻² mm | Non-toxic | 57 ×10⁻² mm | Non-toxic | 43 ×10⁻² mm | 16.5% | 93.4% | 31.7% | 100% | 82.6% | 43.1% | 41.9% | 86.4% | 105% | 74.9% | 65.1% | inhibition in vivo at 100 mg/kg [9]: 3.7%
